Measured values reported in paper PMC12857369 (Kidney International Reports, 2025).
pIC50: −log10 of the molar value.

Target: T1, chymase (Homo sapiens, UniProt P23946)
T1 construct: gene CMA1; recombinant human chymase
T1 sequence (P23946 22-247): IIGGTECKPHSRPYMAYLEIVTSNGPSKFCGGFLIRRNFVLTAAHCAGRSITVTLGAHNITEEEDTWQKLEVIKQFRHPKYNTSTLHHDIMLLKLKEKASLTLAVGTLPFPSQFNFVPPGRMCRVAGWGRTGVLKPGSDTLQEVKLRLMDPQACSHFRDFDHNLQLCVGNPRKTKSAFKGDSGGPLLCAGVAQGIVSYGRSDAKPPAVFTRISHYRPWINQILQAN
Experiment: Ang I to Ang II conversion by recombinant human chymase, LC-MS/MS dose response
Type: biochemical

CC(C)C[C@H](NC(=O)[C@@H](NC(=O)N[C@@H](Cc1ccccc1)C(=O)O)[C@@H]1CCN=C(N)N1)C(=O)N[C@H](C=O)Cc1ccccc1 [chymostatin]
pIC50: 7.22
